IC50 data for 49 compounds are collected here from PubChem BioAssay AID1361 (SRMLSC, 2008).

A short description of this assay: mitochondrial fusion inhibitors, confirmation, cell-based, chemical genetic, wild-type and mutant (AID 1361). As to conditions: Cell-based mitochondrial fusion phenotype, imaging.
Setting [1] is: mutant cells, measured here: mutant cell line IC50.

Active and inactive are the calls of the source. No rule for the calls is given here.

Usually IC50 stands for the point on the concentration scale where inhibition reaches its midpoint.

Regarding `CCCCCOC(=O)c1ccc(NC(=O)c2ccco2)cc1`, the IC50 runs as follows: (WT cells) 12.4 µM (inactive); under setting [1], 10.5 µM. For `CC(C)c1ccccc1OCC(=O)NC1CCCc2ccccc21` (configuration not stated), the IC50 was 20.4 µM (WT cells) and more than 25 µM under setting [1]. The matching figures for `COc1ccc(NC(=O)c2csc(Cc3ccc(Cl)cc3)n2)cc1`: 16 µM and 24.4 µM.

For `Cc1c(C)c2cc(Cl)c(O)c(CN3CCCC(C)C3)c2oc1=O` (configuration not stated), the IC50 by setting is: (WT cells) > 25 µM (inactive); under setting [1], more than 25 µM. For `COc1ccc(C(=O)N(Cc2nc(-c3ccc(C)cc3)no2)C2CCCCC2)cc1OC`, in that order: 20.2 µM and more than 25 µM. As for `CCN(CC)CCNC(=O)Cn1c(-c2ccccn2)nc2ccccc21`, the IC50 under setting [1] was more than 25 µM.

On to `Cc1cc(C(=O)Nn2c(C3CCCCC3)nc3ccccc3c2=O)ccc1[N+](=O)[O-]`, for which the IC50 is, setting by setting: (WT cells) 16.7 µM; under setting [1], more than 25 µM. For `O=c1oc(Nc2cccc(F)c2)nc2ccccc12`, in that order: > 25 µM (inactive) and more than 25 µM. The matching figures for `CN(C)c1ncc(S(=O)(=O)c2ccc(Cl)cc2)c(-c2ccc(Cl)cc2Cl)n1`: 9.56 µM and 15.3 µM.

As to `CCOC(=O)c1c(C)[nH]c(C)c1C(=O)COC(=O)c1cc2ccccc2cc1O`, the IC50 is 17.2 µM (WT cells) and more than 25 µM under setting [1]. For `COc1ccc(-c2[nH]c(-c3cc(OC)c4c(c3)OCO4)nc2-c2ccccc2)cc1`, in that order: 12.6 µM and more than 25 µM. `CCc1ccc2ncc(S(=O)(=O)c3ccc(C)c(C)c3)c(N3CCCC3)c2c1`: the half-inhibitory concentration (IC50) (WT cells) is 14.6 µM and the half-inhibitory concentration (IC50) under setting [1] was more than 25 µM. The matching figures for `Cc1cccc(-c2nnc(SCc3ccccc3)o2)c1`: > 25 µM (inactive) and more than 25 µM. Consider `Clc1cncc(Cl)c1NNc1c2ccccc2nc2ccccc12`, for which the IC50 (WT cells) is > 25 µM (inactive) and the IC50 under setting [1] was more than 25 µM. For `COc1ccc(S(=O)(=O)N2c3ccccc3OCC2C(C)(C)C)cc1` (configuration not stated), in that order: 18.5 µM and more than 25 µM. Turning to `CC(C)Cc1ccc(C(C)C(=O)OCC(=O)c2c[nH]c3ccccc23)cc1` (configuration not stated), the IC50 runs as follows: (WT cells) 17.5 µM; under setting [1], more than 25 µM. The matching figures for `CCn1cc(C(=O)NCCc2ccccc2)c(=O)c2cc(F)c(N3CCN(C)CC3)cc21`: > 25 µM (inactive) and more than 25 µM. Turning to `CCOCCCNC(=S)N1CCCN(c2nc3c(C)c(C)ccc3cc2C#N)CC1`, the IC50 by setting is: (WT cells) 11.8 µM; under setting [1], more than 25 µM. On to `CCC(C)(C)NC(=O)CN(C(=O)c1snc(C(N)=O)c1N)c1ccc2c(c1)OCCO2`, for which the IC50 (WT cells) is > 25 µM (inactive) and the IC50 under setting [1] was more than 25 µM.

For `Cc1cc(NC(=S)N(Cc2cccc(Br)c2)CC2CCC(C(=O)O)CC2)ccc1Cl` (configuration not stated), the half-inhibitory concentration (IC50) by setting is: (WT cells) 21.9 µM; under setting [1], more than 25 µM. The matching figures for `CC12CCC3C(CC=C4CC(O)CCC43C)C1C/C(=C\c1ccccc1F)C2=O` (configuration not stated): 9.36 µM and more than 25 µM. The matching figures for `COc1ccc(-n2ncc3c(NCc4ccco4)ncnc32)cc1`: > 25 µM (inactive) and more than 25 µM. For `COc1ccc(Cn2nc(-c3ccccc3)c(N3CCCCC3)cc2=O)cc1`, in that order: 10.3 µM and more than 25 µM. As to `Cc1ccc2c(c1)C1CN(C)CCC1N2C(=O)c1cn(-c2ccccc2)nc1-c1ccccc1` (configuration not stated), the IC50 was 23.6 µM (WT cells) and more than 25 µM under setting [1]. `Cc1cc(C)nc(NC2=NCC(=O)N2c2ccc3c(c2)OCCO3)n1`: the IC50 was > 25 µM (inactive) (WT cells) and more than 25 µM under setting [1]. `COc1cccc(-c2ccc(C#N)c(OC(=O)c3c(Cl)cccc3Cl)n2)c1`: the IC50 was > 25 µM (inactive) (WT cells) and more than 25 µM under setting [1]. For `O=C(CSCC(=O)N1CCCCC1)Nc1nc(-c2ccccc2)c(-c2ccccc2)s1`, in that order: 10.7 µM and more than 25 µM. For `C=CCn1c(COc2ccccc2-c2ccccc2)nnc1SCC(=O)NC(=O)NCc1ccco1`, in that order: > 25 µM (inactive) and more than 25 µM. For `COc1ccc2nc(NC(=O)c3cccc(OCc4c(C)noc4C)c3)sc2c1`, in that order: > 25 µM (inactive) and more than 25 µM. `COc1ccccc1-c1cc(C(F)(F)F)nc(NCc2cccs2)n1`: the IC50 (WT cells) is 11.2 µM and the IC50 under setting [1] was more than 25 µM. The matching figures for `COc1ccc(CNC(=O)[C@H](C)[C@@H]2C[C@@]2(C)[C@@H](NC(=O)OCc2ccccc2)c2ccccc2)cc1OC`: 22.6 µM and more than 25 µM. The matching figures for `Cc1nc(N2CCCCC2)c2c(-c3cccs3)csc2n1`: 22.4 µM and more than 25 µM. The matching figures for `Nc1ccc2nc(CN3CCOCC3)[nH]c2c1`: > 25 µM (inactive) and more than 25 µM.

As for `COc1ccc(NC(=O)c2ccc(-c3ccccc3C(F)(F)F)o2)cc1`, the IC50 was 16.4 µM (WT cells) and 21.7 µM under setting [1]. For `Cc1cc(C)nc(N2CCCC(C(=O)NCc3cccs3)C2)n1` (configuration not stated), in that order: > 25 µM (inactive) and more than 25 µM. Regarding `COCCn1c(=S)[nH]c2cc(C(=O)N3CCc4ccccc43)ccc2c1=O`, the IC50 was > 25 µM (inactive) (WT cells) and more than 25 µM under setting [1]. Consider `O=C(CNC(=S)N(Cc1ccccc1)Cc1cccs1)NCc1ccc(F)cc1`, for which the IC50 (WT cells) is > 25 µM (inactive) and the IC50 under setting [1] was more than 25 µM. As to `CC(=O)Cc1nsc(NC(=O)c2ccc(-c3ccc(Cl)c(Cl)c3)o2)n1`, the IC50 was > 25 µM (inactive) (WT cells) and more than 25 µM under setting [1].

With `CC(NC(=O)/C(=C/c1ccc(OC(F)F)cc1)c1ccccc1)c1ccccc1` (configuration not stated), the IC50 is, setting by setting: (WT cells) 11.5 µM; under setting [1], more than 25 µM. For `CCOc1ccc(-c2nc(N)ncc2Oc2ccccc2Br)c(O)c1`, in that order: > 25 µM (inactive) and more than 25 µM. The matching figures for `CCc1cccc(CC)c1NC(=S)NCCc1c(C)[nH]c2ccc(C)cc12`: 9.59 µM and more than 25 µM.

Turning to `O=[N+]([O-])c1cc(C(F)(F)F)ccc1NCCc1c[nH]c2ccccc12`, the IC50 by setting is: (WT cells) 13.4 µM; under setting [1], 18.9 µM. As to `Clc1ccc(C2=NNC(=NCc3ccc4c(c3)OCO4)SC2)cc1`, the IC50 by setting is: (WT cells) > 25 µM (inactive); under setting [1], more than 25 µM.

As to `O=C(NCc1ccco1)c1cccnc1-c1nc2ccccc2s1`, the IC50 is > 25 µM (inactive) (WT cells) and more than 25 µM under setting [1].

With `CC1CCC(C(C)C)C(OC(=O)COC(=O)c2ccccc2N)C1` (configuration not stated), the IC50 reads like this: (WT cells) 17.9 µM; under setting [1], more than 25 µM. For `O=C(NCc1nnc(SCc2ccc(C(F)(F)F)cc2)n1-c1ccccc1)C12CC3CC(CC(C3)C1)C2`, in that order: 18 µM and more than 25 µM. The matching figures for `COC(=O)c1ccc(C2C3=C(Nc4nnnn42)c2ccccc2OC3)cc1` (configuration not stated): > 25 µM (inactive) and more than 25 µM. Consider `CC(C)(C)c1ccc(CN2N=C(/C=C/c3ccccc3)CCC2=O)cc1`, for which the half-maximal inhibitory concentration (IC50) is, setting by setting: (WT cells) 11.3 µM; under setting [1], more than 25 µM. For `CC(=O)Oc1ccc(N(C(C)=O)S(=O)(=O)c2cccs2)cc1`, in that order: > 25 µM (inactive) and more than 25 µM.
